Measurements reported in ChEMBL document CHEMBL3272192, “Thyroxine analogues. 23. Quantitative structure-activity correlation studies of in vivo and in vitro thyromimetic activities” (1977).

Tests used:
[1] = biological target: T1, Thyroxine-binding globulin (Homo sapiens) (UniProt P05543); experiment: Binding affinity to thyroxine binding globulin (unknown origin) relative to T4
T1 sequence (whole entry): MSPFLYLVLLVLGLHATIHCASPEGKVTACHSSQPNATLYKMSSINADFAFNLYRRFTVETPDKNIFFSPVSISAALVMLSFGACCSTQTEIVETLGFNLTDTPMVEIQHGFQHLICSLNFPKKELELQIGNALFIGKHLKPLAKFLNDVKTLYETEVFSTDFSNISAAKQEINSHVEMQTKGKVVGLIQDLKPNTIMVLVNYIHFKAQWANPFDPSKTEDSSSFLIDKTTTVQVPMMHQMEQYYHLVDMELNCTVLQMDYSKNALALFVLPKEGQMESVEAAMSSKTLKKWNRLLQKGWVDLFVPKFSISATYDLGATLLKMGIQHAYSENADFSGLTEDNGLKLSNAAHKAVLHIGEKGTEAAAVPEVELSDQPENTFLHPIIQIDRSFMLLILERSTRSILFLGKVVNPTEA

[2] = test system: Rattus norvegicus; experiment: In vivo antigoiter activity in rat; type: functional
[3] = species on record: Rattus norvegicus; experiment: Displacement of radiolabelled L-T3 from thyroid hormone receptor in intact rat hepatic nuclei relative to T3

RBA [1]	log(%) [1]	RBA [3]	log(%) [3]	Compound	Activity [2]	log(%) [2]
3.53%	0.548	100%	2	CC(C)c1cc(Oc2c(I)cc(CC(N)C(=O)O)cc2I)ccc1O (centres undefined)	142.1%	2.153
0.28%	-0.553	13.5%	1.13	Cc1cc(Oc2c(I)cc(CC(N)C(=O)O)cc2I)ccc1O (centres undefined)	14.47%	1.16
1.59%	0.201	21%	1.32	CCc1cc(Oc2c(I)cc(CC(N)C(=O)O)cc2I)ccc1O (centres undefined)	40.8%	1.611
100%	2	12.5%	1.1	NC(Cc1cc(I)c(Oc2cc(I)c(O)c(I)c2)c(I)c1)C(=O)O (centres undefined) [THYROXINE]	18.1%	1.258
